Here are results for 29 molecules from US20240309003A1, “HETEROCYCLIC COMPOUNDS AS TRIGGERING RECEPTOR EXPRESSED ON MYELOID CELLS 2 AGONISTS AND METHODS OF USE” (Vigil Neuroscience, Inc., priority 2021, published 2024).

Some results are limits rather than exact numbers.

The target in this assay is T1, human TREM2 (Homo sapiens, UniProt Q9NZC2).
T1 construct: expressed in transfected cells; host or cells: HEK293T
Nature of the assay: TREM2 agonist potency by cellular phosphorylation of Syk (AlphaLisa) in HEK293T-hTREM2 cells. It counts as cell-based. The procedure, abridged:
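Agonist EC50 from a variable-slope four-parameter fit of % activation, based on AlphaLisa phospho-Syk levels in lysates. Cells: HEK293T-hTREM2 (with DAP12), treated 45 min at room temperature with compound in assay buffer.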
In general terms: Alpha assays give light when donor and acceptor beads are brought close together.

Where [1] appears, read: HEK293 cells expressing human TREM2 and DAP12, Table D-2.
Where [2] appears, read: HEK293 cells expressing human TREM2 and DAP12, Table D.

T1 sequence (Q9NZC2 19-230): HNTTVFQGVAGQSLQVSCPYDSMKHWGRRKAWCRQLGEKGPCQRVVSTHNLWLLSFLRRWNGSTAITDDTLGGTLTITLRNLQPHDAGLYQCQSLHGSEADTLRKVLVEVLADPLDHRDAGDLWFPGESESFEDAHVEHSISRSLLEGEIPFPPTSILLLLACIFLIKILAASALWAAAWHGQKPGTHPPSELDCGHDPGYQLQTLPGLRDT
T1 sequence (O43914 22-113 partner): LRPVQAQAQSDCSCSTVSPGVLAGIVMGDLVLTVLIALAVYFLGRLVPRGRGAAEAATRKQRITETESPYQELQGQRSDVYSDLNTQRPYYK

Usually EC50 stands for the concentration giving half of the maximal effect. A low value points to an effect from little substance. In turn, `Cc1nc2cc([C@H]3CCO[C@@H](c4cnn(C5CC5)c4)C3)nc(-c3ccc(F)cc3F)c2nc1CC#N` [Example I-1451, 2-(7-((2R,4S)-2-(1-cyclopropyl-1H-pyrazol-4-yl)tetrahydro-2H-pyran-4-yl)-5-(2,4-difluorophenyl)-2-methylpyrido[3,4-b]pyrazin-3-yl)acetonitrile] yielded an EC50 under setting [1] of 500 to 3000 nM.
Take `Cc1cc2c(-c3ccc(Cl)cc3F)cc([C@H]3CCO[C@@H](c4cnn(C5CC5)c4)C3)nc2nc1C` [Example 233, 5-(4-chloro-2-fluoro-phenyl)-7-[(2R,4S)-2-(1-cyclopropylpyrazol-4-yl)tetrahydropyran-4-yl]-2,3-dimethyl-1,8-naphthyridine]: the EC50 under setting [2] was less than 50 nM.
`Cc1nc2nc([C@@H]3CCO[C@H](c4cnn(C5CC5)c4)C3)nc(-c3ccc(C(F)(F)F)cc3)c2nc1C` [Example 138, 2-((2S,4R)-2-(1-cyclopropyl-1H-pyrazol-4-yl)tetrahydro-2H-pyran-4-yl)-6,7-dimethyl-4-(4-(trifluoromethyl)phenyl)pteridine] had an EC50 under setting [2] of 50 to 500 nM.
As for `Cc1ccc2c(C34CC(C(F)(F)F)(C3)C4)nc([C@H]3C[C@@H](C)O[C@@H](c4cnn(C5CC5)c4)C3)nc2n1` [Example 220, 2-((2R,4S,6R)-2-(1-cyclopropyl-1H-pyrazol-4-yl)-6-methyltetrahydro-2H-pyran-4-yl)-7-methyl-4-(3-(trifluoromethyl)bicyclo[1.1.1]pentan-1-yl)pyrido[2,3-d]pyrimidine], the EC50 under setting [2] is 500 to 3000 nM.
As for `COc1cccc([C@H]2C[C@@H](c3nc(C45CC(C(F)(F)F)(C4)C5)c4nc(C)c(C)nc4n3)CCO2)n1` [Example 146, 2-[ (2R,4S)-2-(6-methoxy-2-pyridyl)tetrahydropyran-4-yl] - 6,7-dimethyl-4-[3-(trifluoromethyl)-1-bicyclo[1.1.1]pentanyl]pteridine], the EC50 under setting [2] was in the range of 50 to 500 nM.
`Cc1cc([C@H]2C[C@@H](c3cc(-c4ccc(Cl)c(F)c4F)c4cc(C)c(C)nc4n3)CCO2)ccn1` [Example 186, 5-(4-chloro-2,3-difluorophenyl)-2,3-dimethyl-7-((2R,4S)-2-(2-methylpyridin-4-yl)tetrahydro-2H-pyran-4-yl)-1,8-naphthyridine] showed an EC50 under setting [2] of 500 to 3000 nM.
Take `Cc1nc2nc([C@H]3CCO[C@@H](c4cnn(CC5CC5)c4)C3)nc(-c3ccc(C(F)(F)F)cc3F)c2nc1C` [Example I-1577, 2-[(2R,4S)-2-[1-(cyclopropylmethyl)pyrazol-4-yl]tetrahydropyran-4-yl]-4-[2-fluoro-4-(trifluoromethyl)phenyl]-6,7-dimethyl-pteridine]: under setting [1], the EC50 was less than 50 nM.
As to `Cc1nc2nc(C3CCO[C@@H](c4cnn(C5CC5)c4)C3)nc(-c3cc(C(F)(F)F)c(F)cc3F)c2nc1C` (stereo partly drawn) [Example I-1585, 2-((2R)-2-(1-cyclopropyl-1H-pyrazol-4-yl)tetrahydro-2H-pyran-4-yl)-4-(2,4-difluoro-5-(trifluoromethyl)phenyl)-6,7-dimethylpteridinee], under setting [1], the EC50 is less than 50 nM.
`Cc1ccc2c(-c3ccc(F)cc3F)nc([C@H]3CCO[C@@H](c4cnn(C5CC5)c4)C3)nc2n1` [Example 215, 2-((2R,4S)-2-(1-cyclopropyl-1H-pyrazol-4-yl)tetrahydro-2H-pyran-4-yl)-4-(2,4-difluorophenyl)-7-methylpyrido[2,3-d]pyrimidine] registered an EC50 under setting [2] of 50 to 500 nM.
In turn, `Cc1cc([C@@H]2C[C@H](c3cc4nc(C)c(C)cc4c(-c4ccc(Cl)cc4F)n3)CCO2)ccn1` [Example 225, 5-(4-chloro-2-fluorophenyl)-2,3-dimethyl-7-((2S,4R)-2-(2-methylpyridin-4-yl)tetrahydro-2H-pyran-4-yl)-1,6-naphthyridine] came in with an EC50 under setting [2] of 500 to 3000 nM.
The same measure, in the same setting: under `Cc1ccc2c(-c3ccc(F)cc3F)cc([C@H]3CCO[C@@H](c4cnn(C5CC5)c4)C3)nc2n1` [Example 231] stands 50 to 500 nM.
With `Fc1cc(Cl)ccc1-c1nc([C@@H]2CCO[C@H](c3cnn(C4CC4)c3)C2)nc2nc(CC(F)(F)F)cnc12` [Example I-1338, 4-(4-chloro-2-fluoro-phenyl)-2-[(2S,4R)-2-(1-cyclopropylpyrazol-4-yl)tetrahydropyran-4-yl]-7-(2,2,2-trifluoroethyl)pteridine], the EC50 under setting [1] lay within 50 to 500 nM.
For the molecule `Cc1nc2nc(N3C[C@@H](C)O[C@@H](c4cnn(C5CC5)c4)C3)nc(-c3ccnc(C(F)(F)F)c3)c2nc1C` [Example 178], the EC50 under setting [2] was less than 50 nM.
`Cc1nc2nc(N3CCN(C)[C@H](c4cnn(C5CC5)c4)C3)nc(-c3ccc(Cl)cc3F)c2nc1C` [Example 207, (R)-4-(4-chloro-2-fluorophenyl)-2-(3-(1-cyclopropyl-1H-pyrazol-4-yl)-4-methylpiperazin-1-yl)-6,7-dimethylpteridine] displayed an EC50 under setting [2] of less than 50 nM.
In the case of `Cc1nc2cc([C@H]3CCO[C@@H](c4cnn(C5CC5)c4)C3)nc(-c3ccc(F)cc3F)c2nc1C` [Example 210, 7-((2R,4S)-2-(1-cyclopropyl-1H-pyrazol-4-yl)tetrahydro-2H-pyran-4-yl)-5-(2,4-difluorophenyl)-2,3-dimethylpyrido[3,4-b]pyrazine], the EC50 under setting [2] is less than 50 nM.
Molecule `Cc1cnc2c(-c3ccc(F)cc3F)nc(N3C[C@@H](C)O[C@@H](c4cnn(C5CC5)c4)C3)cc2n1` [Example 209, (2S,6R)-2-(1-cyclopropyl-1H-pyrazol-4-yl)-4-(5-(2,4-difluorophenyl)-2-methylpyrido[3,4-b]pyrazin-7-yl)-6-methylmorpholine] yielded an EC50 under setting [2] of 50 to 500 nM.
Molecule `Cc1nc2nc(-c3ccc(Cl)cc3F)cc([C@H]3CCO[C@@H](c4cnn(C5CC5)c4)C3)c2nc1C` [Example 237, 6-(4-chloro-2-fluorophenyl)-8-((2R,4S)-2-(1-cyclopropyl-1H-pyrazol-4-yl)tetrahydro-2H-pyran-4-yl)-2,3-dimethylpyrido[2,3-b]pyrazine] returned an EC50 under setting [2] of less than 50 nM.
Molecule `Cc1nc2nc(C3CCOC(c4nc(C5CC5)n[nH]4)C3)nc(-c3ccc(F)cc3F)c2nc1C` (centres unmarked) [Example 169] had an EC50 under setting [2] of 500 to 3000 nM.
Under setting [1], `Cc1nc2nc(N3C[C@@H](c4cnn(C(F)F)c4)O[C@@H](C4CC4)C3)nc(-c3ccc(F)cc3F)c2nc1C` (stereo in doubt) [Example I-1701, (2S,6R)-2-cyclopropyl-6-[1-(difluoromethyl)pyrazol-4-yl]-4-[4-(2,4-difluorophenyl)-6,7-dimethyl-pteridin-2-yl]morpholine] came in with an EC50 of less than 50 nM.
Molecule `Cc1nc2nc(N3C[C@@H](C)O[C@@H](c4cnn(C5CC5)c4)C3)nc([C@H]3C[C@H](C(F)(F)F)C3)c2nc1C` [Example I-1365, (2S,6R)-2-(1-cyclopropylpyrazol-4-yl)-4-[6,7-dimethyl-4-[3-(trifluoromethyl)cyclobutyl]pteridin-2-yl]-6-methyl-morpholine] yielded an EC50 under setting [1] of less than 50 nM.
In turn, `Cc1cc([C@H]2C[C@@H](c3nc(-c4cc(F)c(Cl)c(F)c4)c4nc(C)c(C)nc4n3)CCO2)ccn1` (racemic) [Example 84, 4-(4-chloro-3,5-difluoro-phenyl)-6,7-dimethyl-2-[(2R,4S)-2-(2-methyl-4-pyridyl)tetrahydropyran-4-yl]pteridine] gave an EC50 under setting [2] of less than 50 nM.
As to `COc1ccc([C@@H]2C[C@H](c3nc(C45CC(C(F)(F)F)(C4)C5)c4nc(C)c(C)nc4n3)CCO2)cn1` [Example 142, 2-((2S,4R)-2-(6-methoxypyridin-3-yl)tetrahydro-2H-pyran-4-yl)-6,7-dimethyl-4-(3-(trifluoromethyl)bicyclo[1.1.1]pentan-1-yl)pteridine], the 50% effective concentration (EC50) under setting [2] was 50 to 500 nM.
Under setting [2], `Cc1cc([C@@H]2C[C@H](c3cc4nc(C)c(C)cc4c(-c4ccc(F)cc4F)n3)CCO2)ccn1` [Example 226, 5-(2,4-difluorophenyl)-2,3-dimethyl-7-((2S,4R)-2-(2-methylpyridin-4-yl)tetrahydro-2H-pyran-4-yl)-1,6-naphthyridine] returned an EC50 of 500 to 3000 nM.
Regarding `Cc1cc([C@@H]2C[C@H](c3nc(-c4ccc(Cl)c(F)c4F)c4ncc(C)nc4n3)CCO2)ccn1` [Example 131, 4-(4-chloro-2,3-difluorophenyl)-7-methyl-2-((2S,4R)-2-(2-methylpyridin-4-yl)tetrahydro-2H-pyran-4-yl)pteridine], the EC50 under setting [2] was 500 to 3000 nM.
On the same count and under the same terms, under `[2H]C([2H])([2H])c1ccc(-c2nc([C@@H]3CCO[C@H](c4cnn(C([2H])([2H])[2H])c4)C3)nc3nc(C([2H])([2H])[2H])c(C([2H])([2H])[2H])nc23)cc1` [Example 174, 6,7-bis(methyl-d3)-2-((2S,4R)-2-(1-(methyl-d3)-1H-pyrazol-4-yl)tetrahydro-2H-pyran-4-yl)-4-(4-(methyl-d3)phenyl)pteridine] stands 3000 to 100000 nM.
Under setting [1], `Cc1nc2nc([C@H]3CC(CO)O[C@@H](c4cnn(C5CC5)c4)C3)nc(-c3ccc(F)cc3F)c2nc1C` (stereo in doubt) [Example I-1624, [(2S,4R,6R)-6-(1-cyclopropylpyrazol-4-yl)-4-[4-(2,4-difluorophenyl)-6,7-dimethyl-pteridin-2-yl]tetrahydropyran-2-yl]methanol] returned an EC50 of 500 to 3000 nM.
In turn, `Cc1nc2nc(N3C[C@@H](CO)O[C@@H](c4cnn(C5CC5)c4)C3)nc(-c3ccc(F)cc3F)c2nc1C` [Example I-1333, [(2S,6S)-6-(1-cyclopropylpyrazol-4-yl)-4-[4-(2,4-difluorophenyl)-6,7-dimethyl-pteridin-2-yl]morpholin-2-yl]methanol] gave an EC50 under setting [1] of 50 to 500 nM.
In turn, `Cc1nc2cc([C@H]3CCO[C@@H](c4cnn(C5CC5)c4)C3)nc(-c3ccc(C(F)(F)F)cc3F)c2nc1C(F)(F)F` [Example I-1562] came in with an EC50 under setting [1] of 50 to 500 nM.
Molecule `Cc1nc2cc([C@@H]3CCO[C@@H](c4cnn(C5CC5)c4)C3)cc(-c3ccc(Cl)cc3F)c2nc1C` [Example 230, 5-(4-chloro-2-fluorophenyl)-7-((2R,4R)-2-(1-cyclopropyl-1H-pyrazol-4-yl)tetrahydro-2H-pyran-4-yl)-2,3-dimethylquinoxaline] yielded an EC50 under setting [2] of 3000 to 100000 nM.
